Test results published in ChEMBL document CHEMBL4387741, “Optimization of novel reversible Bruton's tyrosine kinase inhibitors identified using Tethering-fragment-based screens” (Bioorg Med Chem, 2019).

How the values were obtained:
[1] = molecular target: Ankyrin repeat and protein kinase domain-containing protein 1 (Homo sapiens) (UniProt Q8NFD2); assay: Inhibition of wild-type human partial length ANKK1 (M1 to A305 residues) expressed in mammalian expression system at 1 uM by Kinomescan method relative to control
Sequence of Ankyrin repeat and protein kinase domain-containing protein 1 (Homo sapiens) (Q8NFD2 whole entry, the tested form may be a part): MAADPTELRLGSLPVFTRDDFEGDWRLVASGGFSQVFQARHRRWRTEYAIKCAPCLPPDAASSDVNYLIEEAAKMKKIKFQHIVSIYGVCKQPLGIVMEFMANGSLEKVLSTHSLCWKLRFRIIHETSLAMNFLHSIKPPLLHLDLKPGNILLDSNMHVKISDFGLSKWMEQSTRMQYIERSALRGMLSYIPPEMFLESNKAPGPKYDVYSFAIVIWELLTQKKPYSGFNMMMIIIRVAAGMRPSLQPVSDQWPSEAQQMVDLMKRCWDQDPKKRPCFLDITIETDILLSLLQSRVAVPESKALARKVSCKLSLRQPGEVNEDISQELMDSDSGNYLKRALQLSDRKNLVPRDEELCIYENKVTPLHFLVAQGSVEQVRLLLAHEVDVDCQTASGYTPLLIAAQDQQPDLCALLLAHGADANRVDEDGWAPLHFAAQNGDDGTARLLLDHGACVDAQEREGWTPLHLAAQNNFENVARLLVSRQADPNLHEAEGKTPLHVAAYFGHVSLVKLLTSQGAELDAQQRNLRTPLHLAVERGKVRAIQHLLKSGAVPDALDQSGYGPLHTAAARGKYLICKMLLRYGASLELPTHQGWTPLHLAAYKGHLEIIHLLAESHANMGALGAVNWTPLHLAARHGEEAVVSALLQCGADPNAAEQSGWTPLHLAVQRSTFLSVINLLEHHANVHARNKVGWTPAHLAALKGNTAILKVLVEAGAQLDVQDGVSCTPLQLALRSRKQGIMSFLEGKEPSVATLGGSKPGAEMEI

[2] = molecular target: Bone morphogenetic protein receptor type-1B (Homo sapiens) (UniProt O00238); assay: Inhibition of wild-type human partial length BMPR1B (D178 to L502 residues) expressed in mammalian expression system at 1 uM by Kinomescan method relative to control
[3] = molecular target: Calcium/calmodulin-dependent protein kinase type II subunit alpha (Homo sapiens) (UniProt Q9UQM7); assay: Inhibition of wild-type human partial length CAMK2A (M1 to K328 residues) expressed in bacterial expression system at 1 uM by Kinomescan method relative to control
[4] = molecular target: Cyclin-dependent kinase-like 1 (Homo sapiens) (UniProt Q00532); assay: Inhibition of wild-type human full length CDKL1 (M1 to I358 residues) expressed in mammalian expression system at 1 uM by Kinomescan method relative to control
[5] = molecular target: Dual specificity protein kinase CLK4 (Homo sapiens) (UniProt Q9HAZ1); assay: Inhibition of wild-type human partial length CLK4 (R135 to K481 residues) expressed in bacterial expression system at 1 uM by Kinomescan method relative to control
[6] = molecular target: Myotonin-protein kinase (Homo sapiens) (UniProt Q09013); assay: Inhibition of wild-type human partial length DMPK (V47 to V415 residues) expressed in bacterial expression system at 1 uM by Kinomescan method relative to control
[7] = molecular target: Fibroblast growth factor receptor 4 (Homo sapiens) (UniProt P22455); assay: Inhibition of wild-type human partial length FGFR4 (G402 to E713 residues) expressed in bacterial expression system at 1 uM by Kinomescan method relative to control
[8] = molecular target: Serine/threonine-protein kinase MARK2 (Homo sapiens) (UniProt Q7KZI7); assay: Inhibition of wild-type human partial length MARK2 (M1 to R450 residues) expressed in bacterial expression system at 1 uM by Kinomescan method relative to control
Sequence of Serine/threonine-protein kinase MARK2 (Homo sapiens) (Q7KZI7 whole entry, the tested form may be a part): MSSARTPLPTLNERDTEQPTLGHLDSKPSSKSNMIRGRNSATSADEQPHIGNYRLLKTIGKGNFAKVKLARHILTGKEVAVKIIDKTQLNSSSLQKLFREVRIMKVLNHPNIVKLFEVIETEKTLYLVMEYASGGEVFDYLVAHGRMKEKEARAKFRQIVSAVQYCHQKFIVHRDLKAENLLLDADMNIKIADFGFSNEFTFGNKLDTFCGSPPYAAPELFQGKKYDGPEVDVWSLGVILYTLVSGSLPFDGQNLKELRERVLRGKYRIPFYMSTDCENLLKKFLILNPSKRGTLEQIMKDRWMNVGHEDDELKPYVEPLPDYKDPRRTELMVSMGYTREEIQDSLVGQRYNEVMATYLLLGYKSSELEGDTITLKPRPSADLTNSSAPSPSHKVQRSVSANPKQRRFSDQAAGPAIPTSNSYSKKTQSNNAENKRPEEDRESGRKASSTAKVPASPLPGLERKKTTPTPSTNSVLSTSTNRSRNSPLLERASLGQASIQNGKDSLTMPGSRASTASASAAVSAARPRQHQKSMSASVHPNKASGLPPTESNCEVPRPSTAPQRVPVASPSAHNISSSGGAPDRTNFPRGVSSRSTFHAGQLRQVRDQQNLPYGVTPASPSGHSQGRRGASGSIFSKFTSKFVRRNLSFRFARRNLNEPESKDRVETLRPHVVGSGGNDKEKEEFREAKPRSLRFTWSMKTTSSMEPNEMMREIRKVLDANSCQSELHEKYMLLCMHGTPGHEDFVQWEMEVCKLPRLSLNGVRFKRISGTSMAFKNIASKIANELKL

[9] = molecular target: Maternal embryonic leucine zipper kinase (Homo sapiens) (UniProt Q14680); assay: Inhibition of wild-type human full length MELK (M1 to V651 residues) expressed in bacterial expression system at 1 uM by Kinomescan method relative to control
[10] = molecular target: Serine/threonine-protein kinase NIM1 (Homo sapiens) (UniProt Q8IY84); assay: Inhibition of wild-type human partial length NIM1 (Q44 to N355 residues) expressed in mammalian expression system at 1 uM by Kinomescan method relative to control
[11] = molecular target: Serine/threonine-protein kinase PAK 3 (Homo sapiens) (UniProt O75914); assay: Inhibition of wild-type human full length PAK3 (M1 to R544 residues) expressed in bacterial expression system at 1 uM by Kinomescan method relative to control
[12] = tested on: Phosphatidylinositol 4,5-bisphosphate 3-kinase catalytic subunit alpha isoform (Homo sapiens), P42336 [H1047L]; assay: Inhibition of human partial length PIK3CA H1047L mutant (R108 to N1068 residues) expressed in mammalian expression system at 1 uM by Kinomescan method relative to control
[13] = molecular target: Serine/threonine-protein kinase pim-3 (Homo sapiens) (UniProt Q86V86); assay: Inhibition of wild-type human partial length PIM3 (G16 to A317 residues) expressed in bacterial expression system at 1 uM by Kinomescan method relative to control
[14] = molecular target: Serine/threonine-protein kinase D3 (Homo sapiens) (UniProt O94806); assay: Inhibition of wild-type human partial length PRKD3 (S543 to E863 residues) expressed in bacterial expression system at 1 uM by Kinomescan method relative to control
Sequence of Serine/threonine-protein kinase D3 (Homo sapiens) (O94806 whole entry, the tested form may be a part): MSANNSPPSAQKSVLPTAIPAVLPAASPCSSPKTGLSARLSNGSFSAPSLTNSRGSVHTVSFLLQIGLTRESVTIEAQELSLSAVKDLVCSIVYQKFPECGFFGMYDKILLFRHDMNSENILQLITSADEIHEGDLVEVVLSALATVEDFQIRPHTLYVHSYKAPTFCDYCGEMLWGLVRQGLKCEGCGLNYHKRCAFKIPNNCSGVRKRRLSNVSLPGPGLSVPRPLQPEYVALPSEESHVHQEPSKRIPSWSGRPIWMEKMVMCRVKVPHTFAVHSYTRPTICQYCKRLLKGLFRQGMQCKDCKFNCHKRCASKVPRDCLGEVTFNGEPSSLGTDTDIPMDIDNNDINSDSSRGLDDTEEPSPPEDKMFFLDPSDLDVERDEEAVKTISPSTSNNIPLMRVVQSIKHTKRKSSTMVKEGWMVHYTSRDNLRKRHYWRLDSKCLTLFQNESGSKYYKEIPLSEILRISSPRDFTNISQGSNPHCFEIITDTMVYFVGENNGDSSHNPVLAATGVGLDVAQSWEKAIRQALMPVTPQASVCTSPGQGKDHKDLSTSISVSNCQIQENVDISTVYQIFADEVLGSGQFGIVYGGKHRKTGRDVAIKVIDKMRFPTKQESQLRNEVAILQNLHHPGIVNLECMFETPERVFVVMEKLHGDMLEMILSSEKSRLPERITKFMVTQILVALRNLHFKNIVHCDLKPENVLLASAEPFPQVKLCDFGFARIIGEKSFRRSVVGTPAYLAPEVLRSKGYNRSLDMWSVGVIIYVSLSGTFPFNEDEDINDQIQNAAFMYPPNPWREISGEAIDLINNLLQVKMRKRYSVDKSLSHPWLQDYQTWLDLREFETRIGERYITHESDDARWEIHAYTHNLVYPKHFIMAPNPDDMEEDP

[15] = molecular target: Ribosomal protein S6 kinase alpha-6 (Homo sapiens) (UniProt Q9UK32); assay: Inhibition of wild-type human partial length N-terminal RSK4 kinase domain 1 (M1 to E397 residues) expressed in mammalian expression system at 1 uM by Kinomescan method relative to control
[16] = molecular target: Non-receptor tyrosine-protein kinase TNK1 (Homo sapiens) (UniProt Q13470); assay: Inhibition of wild-type human full length TNK1 (M1 to P661 residues) expressed in bacterial expression system at 1 uM by Kinomescan method relative to control
[17] = Volume of distribution at steady state in Sprague-Dawley rat at 1 mg/kg, iv; assay type: ADME, organism-based; details: in vivo, read-out: Vdss
[18] = AUC (infinity) in po dosed Sprague-Dawley rat using amorphous solid form of compound; assay type: ADME, organism-based; parameters: route oral, time infinity; details: in vivo
[19] = molecular target: Calcium/calmodulin-dependent protein kinase type II subunit delta (Homo sapiens) (UniProt Q13557); assay: Inhibition of wild-type human partial length CAMK2D (M1 to E329 residues) expressed in bacterial expression system at 10 uM by Kinomescan method relative to control
[20] = molecular target: Citron Rho-interacting kinase (Homo sapiens) (UniProt O14578); assay: Inhibition of wild-type human partial length CIT (M68 to E432 residues) expressed in bacterial expression system at 10 uM by Kinomescan method relative to control
[21] = molecular target: Dual specificity tyrosine-phosphorylation-regulated kinase 1B (Homo sapiens) (UniProt Q9Y463); assay: Inhibition of wild-type human full length DYRK1B (M1 to S629 residues) expressed in bacterial expression system at 10 uM by Kinomescan method relative to control
[22] = tested on: Epidermal growth factor receptor (Homo sapiens), P00533 [L858R]; assay: Inhibition of human partial length EGFR L858R mutant (R669 to V1011 residues) expressed in bacterial expression system at 10 uM by Kinomescan method relative to control
[23] = molecular target: Ephrin type-B receptor 1 (Homo sapiens) (UniProt P54762); assay: Inhibition of wild-type human partial length EPHB1 (P589 to T911 residues) expressed in bacterial expression system at 10 uM by Kinomescan method relative to control
Sequence of Ephrin type-B receptor 1 (Homo sapiens) (P54762 whole entry, the tested form may be a part): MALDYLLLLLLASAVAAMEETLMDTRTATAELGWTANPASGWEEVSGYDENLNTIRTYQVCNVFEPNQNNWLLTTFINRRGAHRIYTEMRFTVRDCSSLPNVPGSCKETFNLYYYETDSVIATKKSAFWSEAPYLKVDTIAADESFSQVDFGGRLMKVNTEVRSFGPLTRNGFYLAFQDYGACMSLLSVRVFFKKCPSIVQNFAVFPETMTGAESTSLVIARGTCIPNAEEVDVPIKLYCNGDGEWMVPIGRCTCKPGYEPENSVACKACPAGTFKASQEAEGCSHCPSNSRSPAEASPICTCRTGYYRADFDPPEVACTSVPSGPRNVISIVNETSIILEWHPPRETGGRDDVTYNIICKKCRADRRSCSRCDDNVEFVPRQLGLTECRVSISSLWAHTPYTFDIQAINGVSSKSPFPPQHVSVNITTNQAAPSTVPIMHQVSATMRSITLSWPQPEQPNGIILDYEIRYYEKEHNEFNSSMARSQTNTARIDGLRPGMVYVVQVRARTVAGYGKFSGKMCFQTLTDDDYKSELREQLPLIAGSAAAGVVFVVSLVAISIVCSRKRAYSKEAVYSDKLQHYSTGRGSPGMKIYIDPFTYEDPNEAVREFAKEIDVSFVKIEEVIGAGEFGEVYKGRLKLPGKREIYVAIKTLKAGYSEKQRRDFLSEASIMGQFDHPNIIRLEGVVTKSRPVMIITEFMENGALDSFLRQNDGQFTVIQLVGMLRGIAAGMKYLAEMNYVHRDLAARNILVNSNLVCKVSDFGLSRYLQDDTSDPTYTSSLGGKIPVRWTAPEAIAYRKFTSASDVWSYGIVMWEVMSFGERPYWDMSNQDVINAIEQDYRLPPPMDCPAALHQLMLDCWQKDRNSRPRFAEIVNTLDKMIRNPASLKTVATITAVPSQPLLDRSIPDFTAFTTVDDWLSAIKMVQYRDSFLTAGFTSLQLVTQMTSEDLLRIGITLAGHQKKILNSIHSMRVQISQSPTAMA

[24] = molecular target: Fibroblast growth factor receptor 2 (Homo sapiens) (UniProt P21802); assay: Inhibition of wild-type human partial length FGFR2 (D457 to E769 residues) expressed in bacterial expression system at 10 uM by Kinomescan method relative to control
[25] = molecular target: Mitogen-activated protein kinase kinase kinase 3 (Homo sapiens) (UniProt Q99759); assay: Inhibition of wild-type human partial length MAP3K3 (E320 to Y626 residues) expressed in mammalian expression system at 10 uM by Kinomescan method relative to control
[26] = molecular target: Mitogen-activated protein kinase 13 (Homo sapiens) (UniProt O15264); assay: Inhibition of wild-type human full length p38-delta (M1 to L365 residues) expressed in bacterial expression system at 10 uM by Kinomescan method relative to control
[27] = molecular target: Serine/threonine-protein kinase 33 (Homo sapiens) (UniProt Q9BYT3); assay: Inhibition of wild-type human full length STK33 (M1 to L514 residues) expressed in bacterial expression system at 10 uM by Kinomescan method relative to control
Sequence of Serine/threonine-protein kinase 33 (Homo sapiens) (Q9BYT3 whole entry, looked up, the tested form may be a part): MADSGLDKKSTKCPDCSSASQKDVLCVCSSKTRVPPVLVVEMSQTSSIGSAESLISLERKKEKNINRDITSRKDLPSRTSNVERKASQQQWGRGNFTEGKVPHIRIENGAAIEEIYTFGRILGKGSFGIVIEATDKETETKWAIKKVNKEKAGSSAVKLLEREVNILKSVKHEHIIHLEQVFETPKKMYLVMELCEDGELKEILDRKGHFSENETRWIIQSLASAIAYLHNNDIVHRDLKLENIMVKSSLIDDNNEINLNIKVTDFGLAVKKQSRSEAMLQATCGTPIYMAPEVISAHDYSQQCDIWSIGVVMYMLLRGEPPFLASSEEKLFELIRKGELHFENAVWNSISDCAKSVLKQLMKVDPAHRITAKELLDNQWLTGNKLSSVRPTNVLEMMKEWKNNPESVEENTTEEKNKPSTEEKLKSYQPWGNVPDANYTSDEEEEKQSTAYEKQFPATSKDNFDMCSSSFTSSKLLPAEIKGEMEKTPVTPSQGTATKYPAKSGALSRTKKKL

[28] = molecular target: TGF-beta receptor type-2 (Homo sapiens) (UniProt P37173); assay: Inhibition of wild-type human partial length TGFBR2 (I218 to K567 residues) expressed in bacterial expression system at 10 uM by Kinomescan method relative to control
Sequence of TGF-beta receptor type-2 (Homo sapiens) (P37173 whole entry, the tested form may be a part): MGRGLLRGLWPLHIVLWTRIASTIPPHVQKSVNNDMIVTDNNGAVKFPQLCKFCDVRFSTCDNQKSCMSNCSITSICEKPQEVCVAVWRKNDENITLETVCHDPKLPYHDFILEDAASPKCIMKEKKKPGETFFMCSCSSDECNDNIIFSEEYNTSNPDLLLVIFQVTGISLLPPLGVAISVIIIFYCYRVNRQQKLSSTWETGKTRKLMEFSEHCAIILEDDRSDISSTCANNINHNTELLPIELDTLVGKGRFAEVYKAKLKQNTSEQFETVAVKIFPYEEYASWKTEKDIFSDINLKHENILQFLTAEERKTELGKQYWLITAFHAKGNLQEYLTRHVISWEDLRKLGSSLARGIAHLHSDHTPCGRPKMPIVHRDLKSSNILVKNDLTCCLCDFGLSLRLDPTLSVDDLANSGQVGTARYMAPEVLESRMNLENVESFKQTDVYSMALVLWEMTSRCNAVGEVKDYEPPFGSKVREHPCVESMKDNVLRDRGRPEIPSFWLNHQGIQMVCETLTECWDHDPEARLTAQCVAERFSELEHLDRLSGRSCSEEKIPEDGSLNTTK

**Q.** For `O=C(Nc1cccc([C@@H]2CN(c3ncnc4[nH]ccc34)CCN2CCO)c1)Nc1c(F)cccc1N1CCCC1`, which inhibition [1] is on record?
**A.** The inhibition was 100%.

**Q.** What about the inhibition [2] of the same molecule?
**A.** Its inhibition is 63%.

**Q.** And the inhibition [3]?
**A.** The inhibition was 95%.

**Q.** What about the inhibition [4] of the same molecule?
**A.** The inhibition was 73%.

**Q.** And the inhibition [5]?
**A.** Its inhibition is 100%.

**Q.** And the inhibition [6]?
**A.** Its inhibition is 100%.

**Q.** And the inhibition [7]?
**A.** The inhibition was 100%.

**Q.** What about the inhibition [8] of the same molecule?
**A.** The inhibition was 69%.

**Q.** What about the inhibition [9] of the same molecule?
**A.** The inhibition was 23%.

**Q.** And the inhibition [10]?
**A.** The inhibition was 93%.

**Q.** And the inhibition [11]?
**A.** Its inhibition is 72%.

**Q.** What about the inhibition [12] of the same molecule?
**A.** Its inhibition is 100%.

**Q.** What about the inhibition [13] of the same molecule?
**A.** Its inhibition is 89%.

**Q.** And the inhibition [14]?
**A.** The inhibition was 86%.

**Q.** What about the inhibition [15] of the same molecule?
**A.** Its inhibition is 89%.

**Q.** What about the inhibition [16] of the same molecule?
**A.** Its inhibition is 65%.

**Q.** And the Vd [17]?
**A.** Its Vd is 0.21 L/kg.

**Q.** What about the AUC(0-inf) [18] of the same molecule?
**A.** Its AUC(0-inf) is 1890 ng·h/mL.

**Q.** For `O=C(Nc1cccc([C@H]2CCCN(c3ncnc4[nH]ccc34)C2)c1)Nc1ccccc1N1CCCC1`, which inhibition [19] is on record?
**A.** The inhibition was 100%.

**Q.** And the inhibition [20]?
**A.** Its inhibition is 0.2%.

**Q.** What about the inhibition [21] of the same molecule?
**A.** Its inhibition is 94%.

**Q.** What about the inhibition [22] of the same molecule?
**A.** The inhibition was 76%.

**Q.** And the inhibition [23]?
**A.** Its inhibition is 100%.

**Q.** What about the inhibition [24] of the same molecule?
**A.** The inhibition was 24%.

**Q.** What about the inhibition [25] of the same molecule?
**A.** Its inhibition is 24%.

**Q.** And the inhibition [26]?
**A.** Its inhibition is 100%.

**Q.** What about the inhibition [27] of the same molecule?
**A.** The inhibition was 100%.

**Q.** What about the inhibition [28] of the same molecule?
**A.** The inhibition was 100%.
